“Also recorded” adds a separate entry of the source.
How the values were obtained:
transcobalamin II (TCII) = assay: Gel-shift (gel filtration) assay of radiolabeled cyanocobalamin derivatives with transport protein TC II; assay type: binding, rabbit; settings: for Binding to TCII (in words): gel shift assay; for TC II reactivity: radioactive labeled derivative; for Gel filtration peak of the derivative mixed with TCII: Superdex 75 column, free derivative elutes at 1.5 kDa
Description: To test the binding affinity of cobalamin (Cbl) derivatives to TCII, an in vitro test is carried out with partially purified TCII obtained from the blood of rabbits. Recombinant TCII produced with an E. coli expression system can also be used as a substrate.
TC II is purified by affinity chromatography on a cyanocobalamin-agarose matrix (Sigma), The gel (5 ml) is first washed with 200 ml 50 mM Tris/1 M NaCl, pH 8.0, afterwards with 200 ml 0.1 M glycine/0.1 M glucose/1 M NaCl pH 10, and again with 200 ml 50 mM Tris/1 M NaCl. […] Bound TC II is eluted with 20 ml 4.0 Mguanidine HCl/50 mM Tris pH 8.0, and in a second step with 7.5 M guanidine HCl/50 mM Tris pH 8.0. Most of the bound TC II elutes already with 4 M guanidine HCl. Probes are dialyzed extensively against H2O for 2 days at 4° C. Typical yields are 5-30 nmol/l which translates into 7.5-10 μg of TC II (MW: 50 kDa) per rabbit.
Transcobalamin II cDNA is expressed in E. coli strain FA113, a K12 derivative with double knock-out in trxB and gor genes, where the cytoplasm forms an oxidizing environment and allows disulfide formation. The transcobalamin II protein contains a PreScission protease site followed by an N-terminal histidine tag. The protein is isolated from soluble fractions of E. coli extracts using nickel chelating sepharose. Cyanocobalamin is removed from the transcobalamin II bound to the chelating column with 8 M urea, and the transcobalamin II is afterwards released by imidazole. In some of the preparations, the His-tag is removed by a specific protease.
(§1) The interaction of radiolabeled (^57Co, ^99mTc, ^188Re, ^111In) cyanocobalamin derivatives is measured by gel-shift assay. Radiolabeled cyanocobalamin (0.05 ng to 1 ng) is allowed to react with an excess of transport proteins for 15 min at room temperature. This mixture is applied to a gel-filtration column (Superdex75, Amersham Biosciencies) in the running buffer PBS and 0.1% Tween 20. Biologically active cyanocobalamin, which binds to transport proteins, shifts from a molecular weight of about 1.4 kDa to 40-70 kDa, depending on the transport protein. Titration of the binding capacity of the transport proteins is done with ^57Co-cyanocobalamin (ICN Biomedicals GmbH, Germany; 10 μCi/50 ng).

[1] = Biodistribution of radiolabeled cyanocobalamin derivatives in tumor bearing mice; assay type: in vivo, balb/c mice; settings: for Tissue distribution: Blood / Tissue distribution: Kidney / Tissue distribution: Tumor / Tissue distribution: Liver: 24 h after i.v. injection of radioactive labeled derivative, tumor bearing mice (melanoma B16-F10), vitamin-free diet, figures use percent of injected radioactivity per gram of tissue; for Tissue distribution: Liver: in %ID/g; for Accumulation in tumor relative to blood / Accumulation in tumor relative to kidney and liver: from Table 1, 24 h after i.v. injection in mice
Description: For in vivo studies and for binding studies to the transport vectors, very high specific activity was demanded. Therefore, 100 μl of the labeled solution were injected to an analytical HPLC system to separate the hot from the cold vitamin derivative. The eluate fraction with the highest gamma activity (ca. 300 μl) was diluted with normal saline to a concentration of 10 μCi per animal before i.v. injection. Separation condition were: acetate buffer, XTerra RP8 column, gradient: 0% methanol (0 min), 30% methanol (15 min), 100% methanol (25 min) for the b and d-derivatives, and the TEAP system as described by Schibli et al. (Bioconjugate Chem. 2000, 343-351) for the other compounds.
For biodistribution studies with ^57Co-cyanocobalamin, 0.2 μCi/1 ng of the radiolabeled cyanocobalamin is mixed with 180 μl normal saline and injected i.v. in tumor bearing balb/c mice (syngeneic mouse melanoma B16-F10). After a specified time (5 min to 24 h), animals are sacrificed, the organs weighted and counted on a gamma counter. For biodistribution studies with ^99mTc-labeled cyanocobalamin, 10 μCi/0.5 ng of the radiolabelled cyanocobalamin is mixed with normal saline and used as before. For biodistribution with ^111In-labeled cyanocobalamin, 2 μCi/5 ng of the radiolabeled cyanocobalamin is mixed with normal saline and used as before. To study the effect of Vitamin B12 deficient food, the biodistribution of labeled cyanocobalamin is compared in mice fed with normal food with the biodistribution in mice fed with vitamin B12 deficient food for a period of 2 weeks.

[2] = biological target: T1, transcobalamin I (TC I; haptocorrin) (Homo sapiens, UniProt P20061); assay: Gel-shift (gel filtration) assay of radiolabeled cyanocobalamin derivatives with transport protein TC I; assay type: binding; settings: Superdex 75 column; free derivative elutes at 1.5 kDa
T1 construct: As a source of transcobalamin I, saliva of vegetarian human subjects is used; from tissue; host or cells: human saliva (centrifuged, diluted 1:1 with PBS, sterile filtered)
T1 sequence (P20061 24-433): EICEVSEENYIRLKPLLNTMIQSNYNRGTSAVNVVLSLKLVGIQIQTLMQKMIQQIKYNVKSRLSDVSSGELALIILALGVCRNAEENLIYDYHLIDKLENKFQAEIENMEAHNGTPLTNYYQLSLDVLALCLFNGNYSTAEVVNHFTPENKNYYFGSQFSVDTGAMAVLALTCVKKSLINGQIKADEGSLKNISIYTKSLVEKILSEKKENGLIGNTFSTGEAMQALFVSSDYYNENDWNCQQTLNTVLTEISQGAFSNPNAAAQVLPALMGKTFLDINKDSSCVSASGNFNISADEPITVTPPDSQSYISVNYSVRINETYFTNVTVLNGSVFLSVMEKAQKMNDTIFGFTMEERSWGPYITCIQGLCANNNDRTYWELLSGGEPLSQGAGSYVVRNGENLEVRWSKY
Description: As a source of transcobalamin I, saliva of vegetarian human subjects is used. Saliva is centrifuged at 20'000 rpm 20 min at 4° C., mixed 1:1 with PBS and sterile filtered. The binding capacity of transcobalamin I is usually 10 ng/ml.
as §1

| Substance | Binding to TCII (in words) (transcobalamin II (TCII)) | Tissue distribution: Blood [1] | Tissue distribution: Kidney [1] | Tissue distribution: Tumor [1] | Tissue distribution: Liver [1] | Accumulation in tumor relative to blood [1] | TC II reactivity (transcobalamin II (TCII)) | Accumulation in tumor relative to kidney and liver [1] | Gel filtration peak of the derivative mixed with TCII (transcobalamin II (TCII)) | Gel filtration peak of the derivative mixed with TCI [2] |
| --- | --- | --- | --- | --- | --- | --- | --- | --- | --- | --- |
| Cyanocobalamin-5′-phosphocolamin-His-OMe [Example 25] | bind to TCII | 0.18 %ID/g | 116 %ID/g | 3.16 %ID/g | 20.70 |  | + (they bind to TCII) |  |  |  |
| Cyanocobalamin-b-butyl-PAMA-OEt [Example 12] | TCII non-binders | 0.04 %ID/g | 1.08 %ID/g | 6.13 %ID/g | 0.94 | five times or more than in blood | − | at least half the amount found in the critical organs kidney and liver |  |  |
| Cyanocobalamin-b-butyl-PAPAcet [Example 5] | does bind to TCII | 2.3 %ID/g | 14.1 %ID/g | 7.9 %ID/g | 9.40 |  | + (they bind to TCII) |  | 60 kDa | 44 kDa |
| Cyanocobalamin-b-butyl-aminocarboxymethyl-His-OMe [Example 6] | bind to TCII |  |  |  |  |  | + (they bind to TCII) |  |  |  |
| Cyanocobalamin-b-propyl-His-OMe [Example 20] | bind to TCII | 2.1 %ID/g | 19.9 %ID/g | 9.2 %ID/g | 21.06 |  | + (they bind to TCII) |  |  |  |
| Cyanocobalamin-b-propyl-PAMA-OEt [Example 11] | essentially a TCII-non binder; also recorded: TCII non-binders | 0.09 %ID/g | 0.39 %ID/g | 1.61 %ID/g | 0.44 | five times or more than in blood | − | at least half the amount found in the critical organs kidney and liver | 1.5 kDa | 44 kDa |

The next lines start with results.

| Binding to TCII (in words) (transcobalamin II (TCII)) | Tissue distribution: Blood [1] | Tissue distribution: Kidney [1] | Tissue distribution: Tumor [1] | Tissue distribution: Liver [1] | Accumulation in tumor relative to blood [1] | Substance | TC II reactivity (transcobalamin II (TCII)) | Accumulation in tumor relative to kidney and liver [1] | Gel filtration peak of the derivative mixed with TCII (transcobalamin II (TCII)) | Gel filtration peak of the derivative mixed with TCI [2] |
| --- | --- | --- | --- | --- | --- | --- | --- | --- | --- | --- |
| TCII non-binders | 0.1 %ID/g | 1.36 %ID/g | 0.73 %ID/g | 1.45 | five times or more than in blood | Cyanocobalamin-b-ethyl-PAMA-OEt [Example 10] | − | at least half the amount found in the critical organs kidney and liver |  |  |
| TCII non-binders | 0.25 %ID/g | 3.54 %ID/g | 2.9 %ID/g | 3.90 | five times or more than in blood | Cyanocobalamin-b-ethyl-Triamine [Example 22] | − | at least half the amount found in the critical organs kidney and liver |  |  |
| bind to TCII | 1.2 %ID/g | 40 %ID/g | 3 %ID/g | 8.00 |  | Cyanocobalamin-b-hexyl-PAMA-OEt [Example 14] | + (they bind to TCII) |  |  |  |
| bind to TCII | 2.2 %ID/g | 16.5 %ID/g | 3.6 %ID/g | 8.10 |  | Cyanocobalamin-c-butyl-PAPAcet [Example 8] | + (they bind to TCII) |  |  |  |
| TCII non-binders | 0.06 %ID/g | 10.4 %ID/g | 6.8 %ID/g | 3.90 | five times or more than in blood | Cyanocobalamin-d-propyl-PAMA-OEt [Example 18] | − | at least half the amount found in the critical organs kidney and liver |  |  |

Reference: US7585852B2, “Cobalamine derivatives useful for diagnosis and treatment of abnormal cellular proliferation” (Solidago AG, priority 2003, dated 2009)
